How the values were obtained:
[1] = system: wild sorghum populations from Bolivia; assay: Greenhouse herbicide spray selection, wild accessions; assay type: in vivo; conditions: 83 wild populations
Text: (§1) Seeds of 83 wild sorghum populations from Bolivia were planted in a greenhouse for comparison with Tx2783, an herbicide susceptible elite sorghum genotype. Wild sorghum genotypes were planted in flats containing MetroMix 360 potting soil (Sun Gro) and greenhouse grown. Tx2783 was planted with the wild accessions in each flat for comparison. In one selection using clethodim, plants were sprayed with 0.09 lb ai clethodim acre^−1 at 18 days after planting. […] In one selection using fluazifop-P, flats with Tx2783 and wild accessions were sprayed with a rate of 0.12 lb ai fluazifop-P acre^−1 at 18 days after planting and with 0.36 lb ai fluazifop-P acre^−1 at 32 days after planting. […] In a third experiment, plants were sprayed with a rate of 0.05 lb ai quizalofop acre^−1 at 18 days after planting and with 0.11 lb ai quizalofop acre^−1 at 32 days after planting.

[2] = system: Bol-71; assay: Mode of inheritance greenhouse spray test, Bol-71; assay type: in vivo, wild sorghum; conditions: 0.045 lb ai fluazifop-P acre^-1 at 14 days after planting; n=3
Procedure: (§2) The mode of inheritance of herbicide tolerance was determined by planting seeds of Bol-71, F1 generation of cross ATx623 x Bol-71, and Pioneer 84G62 (herbicide susceptible control) in flats containing MetroMix 360 potting soil in a greenhouse using a randomized complete block design (n=3). The plants were sprayed with 0.045 lb ai fluazifop-P acre^−1 at 14 days after planting. Pioneer 84G62 died between 12-16 days after spraying.

[3] = system: Bol-71 wild sorghum genotype; assay: Greenhouse herbicide spray selection, Bol-71; assay type: in vivo
Text: as §1

[4] = system: Tx2783, an herbicide susceptible elite sorghum genotype; assay: Greenhouse herbicide spray selection, susceptible check; assay type: in vivo
Text: as §1

[5] = system: F1 generation of cross ATx623 x Bol-71; assay: Mode of inheritance greenhouse spray test, F1 hybrid; assay type: in vivo, sorghum; conditions: 0.045 lb ai fluazifop-P acre^-1 at 14 days after planting; n=3
Procedure: as §2

[6] = system: Pioneer 84G62 (herbicide susceptible control); assay: Mode of inheritance greenhouse spray test, susceptible control; assay type: in vivo, sorghum; conditions: 0.045 lb ai fluazifop-P acre^-1 at 14 days after planting; n=3
Procedure: as §2

[7] = 0.12 lb ai fluazifop-P acre^-1 at 18 days and 0.36 lb ai acre^-1 at 32 days after planting
[8] = 0.05 lb ai quizalofop acre^-1 at 18 days and 0.11 lb ai acre^-1 at 32 days after planting

With C[C@@H](Oc1ccc(Oc2ccc(C(F)(F)F)cn2)cc1)C(=O)O [fluazifop-P] as the molecule, how does the “plant response to spraying” value [1, 7] read?
The value was “many of the wild sorghums died”.

And the herbicide damage [2]?
The herbicide damage was “no herbicide damage”.

What about the tolerance to herbicide [3, 7] of the same molecule?
Its tolerance to herbicide is “high levels of tolerance”.

What about the “plant response to spraying” value [4, 7] of the same molecule?
Its value is “died”.

What about the herbicide damage [5] of the same molecule?
The herbicide damage was “no herbicide damage”.

And the “time at which plants died” value [6]?
The value was 12-16 days after spraying.

What does the source list for CC(Oc1ccc(Oc2cnc3cc(Cl)ccc3n2)cc1)C(=O)O (stereo not drawn) [quizalofop]?
plant response to spraying [1, 8]: many of the wild sorghums died; tolerance to herbicide [3, 8]: high levels of tolerance; plant response to spraying [4, 8]: died

Source: patent US20100115663A1, “Acetyl-CoA Carboxylase Herbicide Resistant Sorghum” (priority 2007, published 2010)
